# Numbered stars: 1 amine (or outer) side, 2 acyl side, 3 side chain; on linkers, the order of the positions; unused ones are H or OH. Square brackets hold non-standard residues; d marks the D form. Peptide text beside a SMILES is read from it. * marks the point of attachment. DOTA = O=C(O)CN1CCN(CC(=O)O)CCN(CC(=O)*)CCN(CC(=O)O)CC1; X1 = O=C(C1CSC(c2nc3ccc(N[*:1])cc3s2)=N1)[*:2]; X2 = N#Cc1ccc2cc(OCCCN*)ccc2n1; SEt = CCS*
# Tested on: subcutaneous HeLa tumors
# Test: In vivo MR imaging of doxorubicin-treated HeLa tumors
# Set-up: species or system mouse
# Protocol: Evaluation of activatable contrast agent probe 15 for MR imaging of caspase-3 activity in vivo was performed in nude mice bearing subcutaneous HeLa tumors. Tumors were implanted and grown for 10-15 days before receiving intratumoral injections of two doses of 0.2 mg doxorubicin separated by 2 days. Probe 15 or 1-ctrl (19) (0.1 mmol kg^−1) was injected intravenously the day before treatment (baseline) and four days post-treatment (treated). Spin-echo T1-weighted multislice MR images at 1 T were recorded before (pre-contrast) and every 4 min after contrast agent administration (post-contrast), and scanning was carried out for 4 h post-contrast for each mouse. Much brighter MR signals (T1 contrast) were observed 40 and 120 min after injection with probe 15 in treated tumors as compared to that in baseline tumors (FIG. 29A), or in treated tumors with 1-ctrl (19) (FIG. 29B).
# In vivo MR imaging was performed on an Aspect M2 1T permanent magnet (Aspect Imaging, Shoham, Israel) using a 40 mm Transmit/Receive mouse body coil. During imaging, the animals were anaesthetized with isofluorane and their respiration and body temperature were constantly monitored. Intravenous contrast injection at 0.1 mmol/kg concentration was administered in a 100 μL volume for every imaging session. Multi-slice (312 μm in-plane, 12 slices with 1 mm thickness) T1-weighted spin echo images (TE/TR=8.9/250 ms, matrix 128×128, FOV=40 mm, NEX=6) were acquired, one before contrast injection and then every 4 min up to 4 h after contrast injection. A 1 mM Dotarem reference tube was inserted in the field of view to enable inter-session variability correction during post-processing. Each animal underwent two imaging session; one before DOX treatment (baseline), and one after DOX treatment (treated).
# Acquired MR data were transferred as DICOM images to an offline workstation and ImageJ (NIH) was used for post processing and quantitative image analysis. This consisted of manual segmentation of tumor ROI for each slice, slice-wise normalization of mean tumor signal intensity with the 1 mM Dotarem reference standard to account for inter-session variability, followed by combining these normalized, slice-wise values to generate mean volumetric tumor signal intensities (SI) for each time point.
# Signal enhancement was calculated at each time point as the difference between the tumor SI at that time point and the tumor SI in the pre-contrast (t=0) dataset. SE(t)=SI(t)−SI(t=0); for each mouse, for every session
# This metric was used to quantify the difference in SE between the baseline (before DOX treatment) session and the treated session for each mouse, as a means to tease out the difference between the two contrast agents, probe 1 and 1-cntl (19) over the time course of the imaging session. % D(t)=[SE(t,treated)−SE(t,baseline)]/SE(t,baseline); for each mouse.
smiles,measurement,setting,value
CCSSCC(NC(=O)C(CC(=O)O)NC(=O)C(NC(=O)C(CCC(=O)O)NC(=O)C(CC(=O)O)NC(C)=O)C(C)C)C(=O)NC(CCCCNC(=O)CN1CCN(CC(=O)[O-])CCN(CC(=O)[O-])CCN(CC(=O)[O-])CC1)C(=O)Nc1ccc2nc(C3=NC(C(=O)NCCCOc4ccc5nc(C#N)ccc5c4)CS3)sc2c1.[Gd+3] (centres unmarked) [probe 15] (Ac-DEVDC(SEt)K(DOTA)[X1]-X2; configuration not given here),time of maximum SI enhancement in treated tumors after administration,0.1 mmol kg^−1 i.v.,40 min
same,"% difference in tumor SI enhancement, treated versus baseline",20 min,62%
same,"% difference in tumor SI enhancement, treated versus baseline",120 min,169%
same,SI enhancement in treated mice higher than with 1-ctrl (19),120 min after injection,77%
same,Gd uptake in tumors (ICP-MS),"mouse, in vivo",higher Gd level in treated tumors

# Reference: patent US9642922B2, “Caspase-triggered nano-aggregation probes and methods of use” (The Board of Trustees of the Leland Stanford Junior …, priority 2013, dated 2017)
